Measurements: patent US20020164574A1 (priority 2001, published 2002)
Entries after “also recorded” stand apart in the source; their conditions may differ.

What was measured:
[1] = test system: S. cerevisiae; assay: YT MicroPlate carbon utilization test with fungicide treatment; assay type: cell-based; conditions: sub-inhibitory concentration of fungicide; 48 hours incubation; YT MicroPlate (Biolog); FIG. 2
Experimental: The YT microplate test panel (Biolog, Inc.) is designed as a tool for identifying a broad range of yeasts by their carbon utilization patterns. Initial tests were performed with S. cerevisiae in these plates with and without the addition of various fungicides. Very simply, yeast cells are prepared as a water suspension as per the YT microplate instructions. Prior to loading the plates with cells, a fungicide or solvent control is added to the water suspension. The cells are immediately loaded onto a plate. The plates were incubated at 26° C. as per instructions, and OD490 and OD750 readings were obtained at various time points during incubation. The results of fungicide treated samples and controls are compared. Differences in well growth that is altered relative to the control is recorded and is presumed to relate to the mode-of-action of the chemical.
A test in the YT microplate was set up using the sub-inhibitory concentration of three fungicides for which a putative MOA is known. Two fungicides, benomyl and fenpropimorph are predicted to have no effect on carbon utilization, but the third, fenpiclonil, is predicted to affect glucose uptake and utilization. The experiments were performed as described.

[2] = test system: M. grisea and S. cerevisiae; assay type: cell-based; conditions: OD600; rich liquid media; two fold dilution series; species not given

Compound	utilization of carbon sources, fungicide treatment compared to controls [1]	growth inhibition by spectrophotometric analysis [2]
CCCCNC(=O)n1c(NC(=O)OC)nc2ccccc21 [benomyl]	did not result in any significant differences from the controls	–
N#Cc1c[nH]cc1-c1cccc(Cl)c1Cl [fenpiclonil]	decreased utilization of glucose, raffinose and sucrose; also recorded: significant changes in the utilization of glucose, raffinose, and sucrose	–
CC(Cc1ccc(C(C)(C)C)cc1)CN1C[C@@H](C)O[C@@H](C)C1 (some centres unmarked) [fenpropimorph]	did not result in any significant differences from the controls	–
O=C1CCc2cccc3c2N1CC3 [pyroquilon]	–	no growth inhibition
Cc1cccc2sc3nncn3c12 [tricyclazole]	–	no growth inhibition
